Test results taken from paper PMC6917698, “One-Pot Radiosynthesis and Biological Evaluation of a Caspase-3 Selective 5-[^123,125I]iodo-1,2,3-triazole derived Isatin SPECT Tracer” (Scientific Reports, 2019).

Assays:
[1] = Log D measurement (n-octanol/PBS, gamma counting); type: physicochemical; conditions: measured with 125I-labelled compound
[2] = system: SW1222 tumour-bearing mice; experiment: Ex vivo biodistribution in SW1222 tumour-bearing mice; conditions: for Uptake in tumour: SW1222 xenograft, 60 min after i.v. injection
[3] = molecular target: T1, Recombinant human caspase-3 (Homo sapiens, UniProt P42574); experiment: Caspase enzyme inhibition assay (fluorogenic Ac-DEVD-AMC), caspase-3
T1 sequence (P42574 29-175 limits assumed): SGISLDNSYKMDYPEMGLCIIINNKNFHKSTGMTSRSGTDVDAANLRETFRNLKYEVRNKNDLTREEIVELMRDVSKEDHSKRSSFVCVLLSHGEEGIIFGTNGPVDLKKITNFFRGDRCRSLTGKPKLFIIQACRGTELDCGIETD
T1 sequence (P42574 176-277 limits assumed): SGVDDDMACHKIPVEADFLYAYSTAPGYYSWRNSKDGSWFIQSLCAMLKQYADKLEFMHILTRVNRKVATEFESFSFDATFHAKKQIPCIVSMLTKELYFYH

[4] = molecular target: Recombinant human caspase-8 (Homo sapiens, UniProt Q14790); experiment: Caspase enzyme inhibition assay (fluorogenic Ac-IETD-AMC), caspase-8
Chain of Recombinant human caspase-8 (Q14790 217-374 limits assumed): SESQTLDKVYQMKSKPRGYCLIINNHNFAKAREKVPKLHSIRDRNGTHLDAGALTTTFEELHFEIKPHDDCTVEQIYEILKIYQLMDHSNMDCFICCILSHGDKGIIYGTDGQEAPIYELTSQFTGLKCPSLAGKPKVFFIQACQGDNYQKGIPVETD
Chain of Recombinant human caspase-8 (Q14790 385-479 limits assumed): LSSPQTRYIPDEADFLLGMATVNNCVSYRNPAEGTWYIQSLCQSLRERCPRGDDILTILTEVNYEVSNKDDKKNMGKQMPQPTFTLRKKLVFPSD

[5] = Plasma metabolite analysis by HPLC; type: in vivo, mice; conditions: 15 min post-injection, i.v.
Excerpt: However, the overall uptake in the tumour was too low to allow in vivo imaging of tumour apoptosis with SPECT. […] It is unclear if this reflects drug induced apoptosis, or if the observed changes were due to swelling or increased local blood flow. […] A single polar radioactive metabolite was detected consistent with deiodination in vivo to give [^125I]iodide. However, it should be noted that a similar polar metabolite has been observed for the non-iodinated analog [^18F]ICM-11, and the low uptake in the thyroid (2.4 ± 1%ID/g at 60 min post-injection) and high liver uptake point to another metabolic route. In any case, the rapid metabolism makes FITI poorly suited as a tracer for in vivo imaging of apoptosis.
After an incubation period at 37 °C
linear correlation software (OriginPro 2015).
3.2. Plasma metabolite analysis
The supernatant was decanted and mixed with
3.3. Biodistribution studies in mice
week prior to initiation of studies.
College London Animal Ethics Committee.4
were rapidly excised and weighed.

[6] = control animals, 60 min after i.v. tail vein injection

Intact parent tracer in mouse plasma [5]	Uptake in thyroid ([2]; 60 min post-injection)	Uptake in liver [2, 6]	Uptake in small intestine [2, 6]	Uptake in stomach [2, 6]	Uptake in tumour ([2]; control animals)	Uptake in tumour ([2]; etoposide-treated mice (50 mg/kg, 24 hrs, i.p.), p < 0.001 vs control)	SMILES	logD [1]	Increase in tumour uptake after etoposide-induced cell death ([2]; SW1222 xenograft model, etoposide vs control)	Ki [3]	IC50 [4]
							O=C1C(=O)N(Cc2nnn(CCF)c2I)c2ccc(S(=O)(=O)N3CCC[C@H]3COc3ccc(F)cc3F)cc21 [FITI, (S)-5-((2-((2,4-difluorophenoxy)methyl)pyrrolidin-1-yl)sulfonyl)-1-((1-(2-Fluoroethyl)-5-(Iodo)-1H-1,2,3-Triazol-4-yl)methyl)Indoline-2,3-dione]	1.6 ± 0.1	2 fold	0.0061 ± 0.0009 µM	> 50 µM
less than 50%	2.4 ± 1 %ID/g	17 ± 6 %ID/g	48 ± 13 %ID/g	28 ± 25 %ID/g	0.7 ± 0.4 %ID/g	1.5 ± 0.2 %ID/g	O=C1C(=O)N(Cc2nnn(CCF)c2[125I])c2ccc(S(=O)(=O)N3CCCC3COc3ccc(F)cc3F)cc21 (stereo not shown) [[^125I]FITI]				
							O=C1C(=O)N(Cc2nnn(CCF)c2I)c2ccccc21 [compound 4]	1.14 ± 0.06		> 50 µM	
